Laboratory results: the NIST ThermoML archive (doi:10.1016/j.jct.2014.09.011)

Assay: mn = molality of the nth substance listed, in mol/kg
Conditions: 101.3 kPa, Liquid; for speed of sound: Frequency=2 MHz, Linear variable-path acoustic interferometer; for mass density: Pycnometric method

C=C[C@H]1CN2CC[C@H]1C[C@H]2[C@H](O)c1ccnc2ccc(OC)cc12.Cl [quinine hydrochloride] + O
Conditions	mass density [kg/m3]	speed of sound [m/s]
278.15 K, m1 = 0.0127	1001.09	1429.3
278.15 K, m1 = 0.0177	1001.51	1430.5
278.15 K, m1 = 0.0225	1001.92	1431.7
278.15 K, m1 = 0.0287	1002.46	1433.3
278.15 K, m1 = 0.0332	1002.86	1434.4
278.15 K, m1 = 0.0402	1003.44	1436.2
278.15 K, m1 = 0.048	1004.11	1438.1
278.15 K, m1 = 0.0603	1005.15	1441.1
278.15 K, m1 = 0.0653	1005.57	1442.4
278.15 K, m1 = 0.0698	1005.93	1443.5
278.15 K, m1 = 0.0798	1006.76	1446
278.15 K, m1 = 0.09	1007.59	1448.5
278.15 K, m1 = 0.0987	1008.29	1450.7
288.15 K, m1 = 0.0106	1000.01	1468.3
288.15 K, m1 = 0.0163	1000.5	1469.6
288.15 K, m1 = 0.022	1000.99	1470.9
288.15 K, m1 = 0.0294	1001.64	1472.5
288.15 K, m1 = 0.0361	1002.19	1474
288.15 K, m1 = 0.0396	1002.48	1474.8
288.15 K, m1 = 0.0491	1003.28	1477
288.15 K, m1 = 0.0552	1003.79	1478.3
288.15 K, m1 = 0.0598	1004.17	1479.3
288.15 K, m1 = 0.0687	1004.9	1481.4
288.15 K, m1 = 0.0785	1005.7	1483.6
288.15 K, m1 = 0.0881	1006.49	1485.7
288.15 K, m1 = 0.1019	1007.59	1488.8
298.15 K, m1 = 0.0109	997.96	1499.2
298.15 K, m1 = 0.0125	998.1	1499.4
298.15 K, m1 = 0.0199	998.7	1501.1
298.15 K, m1 = 0.0248	999.09	1502.2
298.15 K, m1 = 0.0286	999.45	1502.9
298.15 K, m1 = 0.0378	1000.17	1504.9
298.15 K, m1 = 0.0473	1000.94	1506.9
298.15 K, m1 = 0.0544	1001.52	1508.5
298.15 K, m1 = 0.0594	1001.93	1509.4
298.15 K, m1 = 0.0677	1002.6	1511.4
298.15 K, m1 = 0.0785	1003.46	1513.7
298.15 K, m1 = 0.0881	1004.22	1515.8
298.15 K, m1 = 0.0987	1005.05	1518.1

O=C(O)[C@]1(O)C[C@@H](O)[C@@H](O)[C@H](O)C1 + O
Conditions	mass density [kg/m3]	speed of sound [m/s]
278.15 K, m1 = 0.01	1000.73	1427.1
278.15 K, m1 = 0.0198	1001.5	1428.1
278.15 K, m1 = 0.0299	1002.27	1429.2
278.15 K, m1 = 0.0374	1002.84	1429.9
278.15 K, m1 = 0.0405	1003.09	1430.2
278.15 K, m1 = 0.0441	1003.35	1430.6
278.15 K, m1 = 0.0492	1003.74	1431
278.15 K, m1 = 0.0601	1004.55	1432.1
278.15 K, m1 = 0.0634	1004.82	1432.4
278.15 K, m1 = 0.072	1005.45	1433.3
278.15 K, m1 = 0.0815	1006.18	1434.3
278.15 K, m1 = 0.0892	1006.75	1435
278.15 K, m1 = 0.1001	1007.56	1436.1
288.15 K, m1 = 0.0096	999.82	1466.7
288.15 K, m1 = 0.0238	1000.89	1467.9
288.15 K, m1 = 0.0297	1001.32	1468.4
288.15 K, m1 = 0.0362	1001.8	1468.9
288.15 K, m1 = 0.0403	1002.1	1469.3
288.15 K, m1 = 0.0447	1002.43	1469.6
288.15 K, m1 = 0.0489	1002.74	1470
288.15 K, m1 = 0.0542	1003.11	1470.4
288.15 K, m1 = 0.061	1003.63	1471
288.15 K, m1 = 0.0683	1004.16	1471.6
288.15 K, m1 = 0.0795	1004.98	1472.5
288.15 K, m1 = 0.0869	1005.52	1473.1
288.15 K, m1 = 0.0992	1006.4	1474.2
298.15 K, m1 = 0.0096	997.74	1497.4
298.15 K, m1 = 0.0199	998.49	1498.3
298.15 K, m1 = 0.0254	998.89	1498.7
298.15 K, m1 = 0.0304	999.25	1499.1
298.15 K, m1 = 0.0385	999.83	1499.7
298.15 K, m1 = 0.0415	1000.05	1500
298.15 K, m1 = 0.0493	1000.6	1500.6
298.15 K, m1 = 0.0542	1000.95	1501
298.15 K, m1 = 0.061	1001.46	1501.5
298.15 K, m1 = 0.0716	1002.18	1502.4
298.15 K, m1 = 0.0786	1002.68	1502.9
298.15 K, m1 = 0.0869	1003.27	1503.6
298.15 K, m1 = 0.1007	1004.22	1504.7

O [water] + Cl.N=C(N)N
278.15 K, m2 = 0
Conditions	mass density [kg/m3]	speed of sound [m/s]
–	999.96	1426.2

O [water] + O=C(O)[C@]1(O)C[C@@H](O)[C@@H](O)[C@H](O)C1
278.15 K, m2 = 0
Conditions	mass density [kg/m3]	speed of sound [m/s]
–	999.96	1426.2

Cl.N=C(N)N [guanidine hydrochloride] + O
Conditions	mass density [kg/m3]	speed of sound [m/s]
278.15 K, m1 = 0.0101	1000.29	1427
278.15 K, m1 = 0.0162	1000.5	1427.5
278.15 K, m1 = 0.0196	1000.61	1427.8
278.15 K, m1 = 0.0227	1000.7	1428
278.15 K, m1 = 0.0291	1000.91	1428.5
278.15 K, m1 = 0.039	1001.25	1429.3
278.15 K, m1 = 0.0501	1001.58	1430.3
278.15 K, m1 = 0.0586	1001.85	1431
278.15 K, m1 = 0.0619	1001.96	1431.2
278.15 K, m1 = 0.0685	1002.17	1431.8
278.15 K, m1 = 0.0807	1002.54	1432.8
278.15 K, m1 = 0.0882	1002.78	1433.4
278.15 K, m1 = 0.0981	1003.08	1434.2
288.15 K, m1 = 0.0102	999.41	1466.6
288.15 K, m1 = 0.0201	999.7	1467.3
288.15 K, m1 = 0.0267	999.9	1467.8
288.15 K, m1 = 0.0297	999.98	1468
288.15 K, m1 = 0.0387	1000.25	1468.6
288.15 K, m1 = 0.0437	1000.41	1469
288.15 K, m1 = 0.0502	1000.59	1469.4
288.15 K, m1 = 0.0598	1000.86	1470.1
288.15 K, m1 = 0.0634	1000.97	1470.4
288.15 K, m1 = 0.0697	1001.15	1470.8
288.15 K, m1 = 0.0798	1001.43	1471.5
288.15 K, m1 = 0.0926	1001.79	1472.4
288.15 K, m1 = 0.1009	1002.03	1473
298.15 K, m1 = 0.0101	997.34	1497.4
298.15 K, m1 = 0.0162	997.52	1497.8
298.15 K, m1 = 0.0196	997.61	1497.9
298.15 K, m1 = 0.0267	997.81	1498.4
298.15 K, m1 = 0.0299	997.9	1498.6
298.15 K, m1 = 0.0349	998.05	1498.9
298.15 K, m1 = 0.0401	998.17	1499.2
298.15 K, m1 = 0.0515	998.5	1499.9
298.15 K, m1 = 0.0586	998.7	1500.4
298.15 K, m1 = 0.0705	999.01	1501.2
298.15 K, m1 = 0.0807	999.29	1501.8
298.15 K, m1 = 0.0926	999.61	1502.5
298.15 K, m1 = 0.1009	999.84	1503

O [water] + C=C[C@H]1CN2CC[C@H]1C[C@H]2[C@H](O)c1ccnc2ccc(OC)cc12.Cl
278.15 K, m2 = 0
Conditions	mass density [kg/m3]	speed of sound [m/s]
–	999.96	1426.2
